In US20260034252A1, “FIBROBLAST ACTIVATION PROTEIN-TARGETED COMPOSITIONS AND METHODS OF USE THEREOF” (Ratio Therapeutics, Inc., priority 2022, published 2026):

target: T1, FAP (Homo sapiens (Human), UniProt Q12884); test: FAP protease inhibition assay (FAM-labeled substrate peptide, microfluidic electrophoresis); format: biochemical; details: enzyme 0.5 nM, substrate peptide 1 uM, 15 minutes pre-incubation, three hours for human FAP
Procedure: Protease reactions were assembled in 384 well plates (Greiner) in a total volume of 20 uL as described below.
Recombinant proteins were pre-diluted in assay buffer comprising of 100 mM HEPES, pH 7.5, 0.1% BSA, 0.01% Triton X-100, 1 mM DTT, and dispensed into 384 well plate (10 uL per well). Test compounds were serially pre-diluted in DMSO and added to the assay wells by acoustic dispensing (Labcyte Echo 550). Control samples (0%-inhibition in the absence of inhibitor, DMSO only) and 100%-inhibition (in the absence of enzyme) were assembled in replicates of four and used to calculate the %-inhibition in the presence of compounds. Concentration of DMSO was equalized to 1% in all samples.
Compounds were pre-incubated with enzymes for 15 minutes. Human FAP was obtained from Enzo, catalogue number BML-SE409-0010. […] Final concentration of enzymes were 0.5 nM. Final concentration of substrate peptides was 1 uM.
The reactions were allowed to proceed at room temperature. Incubation time was three hours for human FAP, 0.5 hours for mouse FAP.
Terminated plates were analyzed using a microfluidic electrophoresis instrument (Caliper LabChip® 3000, Caliper Life Sciences/Perkin Elmer). A change in relative intensity of the peptide substrate and cleaved product was the parameter measured. Activity in each test sample was determined as the product to sum ratio (PSR):P/(S+P), where P is the peak height of the product, and S is the peak height of the substrate. Percent inhibition (Pinh) was determined using the following equation: Pinh=(PSR0% inh−PSRcompound)/(PSR0% inh−PSR100% inh)*100, in which: PSRcompound is the product/sum ratio in the presence of compound, PSR0% inh is the product/sum ratio in the absence of compound and the PSR100% inh is the product/sum ratio in the absence of the enzyme.

T1 sequence (Q12884 whole entry): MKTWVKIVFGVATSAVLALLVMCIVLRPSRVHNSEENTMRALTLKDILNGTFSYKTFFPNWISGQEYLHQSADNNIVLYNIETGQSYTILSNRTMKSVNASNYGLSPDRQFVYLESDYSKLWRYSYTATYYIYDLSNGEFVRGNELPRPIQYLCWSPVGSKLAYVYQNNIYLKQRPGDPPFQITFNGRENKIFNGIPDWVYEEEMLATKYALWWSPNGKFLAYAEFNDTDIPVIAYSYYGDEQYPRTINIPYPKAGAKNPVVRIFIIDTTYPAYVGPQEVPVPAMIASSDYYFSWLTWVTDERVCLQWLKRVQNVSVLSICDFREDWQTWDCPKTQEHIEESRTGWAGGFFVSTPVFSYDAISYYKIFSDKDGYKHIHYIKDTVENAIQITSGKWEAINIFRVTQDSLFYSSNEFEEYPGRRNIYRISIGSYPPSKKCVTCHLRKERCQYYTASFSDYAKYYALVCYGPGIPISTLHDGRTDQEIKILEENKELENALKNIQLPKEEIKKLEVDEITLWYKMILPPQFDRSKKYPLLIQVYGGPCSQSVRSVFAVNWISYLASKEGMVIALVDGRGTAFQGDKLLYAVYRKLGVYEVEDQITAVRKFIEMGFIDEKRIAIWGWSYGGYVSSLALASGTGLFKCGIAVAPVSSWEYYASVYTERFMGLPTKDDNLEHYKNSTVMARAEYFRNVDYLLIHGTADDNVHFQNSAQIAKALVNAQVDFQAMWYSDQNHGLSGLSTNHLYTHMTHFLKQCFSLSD

First: 2,2′,2″-(10-(8-(1-((4-((2-((R)-2-boronopyrrolidin-1-yl)-2-oxoethyl)carbamoyl)quinolin-7-yl)oxy)-2-oxo-6,9,12-trioxa-3-azapentadecanamido)-39-carboxy-48-(4-isobutylphenyl)-2,9,37,45-tetraoxo-13,16,19,22,25,28,31,34-octaoxa-3,10,38,44-tetraazaoctatetracontyl)-1,4,7,10-tetraazacyclo-dodecane-1,4,7-triyl)triacetic acid [RTX-1357R]
Second: CCCC(=O)NCCCC[C@H](NC(=O)[C@H](CCCCNC(=S)Nc1ccc(CC2CN(CC(=O)O)CCN(CC(=O)O)CCN2CC(=O)O)cc1)NC(=O)CCOCCOCCOCCNC(=O)COc1ccc2c(C(=O)NCC(=O)N3CCC[C@H]3C#N)ccnc2c1)C(=O)O (stereo partly shown) [RTX-1317S]
The IC50 of the first is lower: less than 0.1 nM for the first, 0.1 to 0.5 nM for the second. The first is the more potent here.

Compared with CCCCCC(=O)NCCCC[C@H](NC(=O)[C@H](CCCCNC(=S)Nc1ccc(CC2CN(CC(=O)O)CCN(CC(=O)O)CCN2CC(=O)O)cc1)NC(=O)CCOCCOCCOCCNC(=O)COc1ccc2c(C(=O)NCC(=O)N3CCC[C@H]3C#N)ccnc2c1)C(=O)O (stereo partly shown) [RTX-1318S], CC(=O)NCCCC[C@H](NC(=O)[C@H](CCCCNC(=S)Nc1ccc(CC2CN(CC(=O)O)CCN(CC(=O)O)CCN2CC(=O)O)cc1)NC(=O)CCOCCOCCOCCNC(=O)COc1ccc2c(C(=O)NCC(=O)N3CCC[C@H]3B(O)O)ccnc2c1)C(=O)O (stereo partly shown) [RTX-1319R] is higher in IC50: less than 0.1 nM for the first, 0.1 to 0.5 nM for the second.

First: CC(=O)NCCCC[C@H](NC(=O)[C@H](CCCCNC(=O)c1ccc(F)c(C#N)c1)NC(=O)CCOCCOCCOCCNC(=O)COc1ccc2c(C(=O)NCC(=O)N3CCC[C@H]3C#N)ccnc2c1)C(=O)O [RTX-1324S, (S)-2-[(S)-2-(3-{2-[2-(2-{2-[4-({2-[(S)-2-Cyano-1-pyrrolidinyl]-2-oxoethylamino}carbonyl)-7-quinolyloxy]acetylamino}ethoxy)ethoxy]ethoxy}propionylamino)-6-(3-cyano-4-fluorobenzoylamino)hexanoylamino]-6-acetylaminohexanoic Acid]
Second: CC(=O)NCCCC[C@H](NC(=O)[C@H](CCCCNC(=O)c1ccc(F)c(C(F)(F)F)c1)NC(=O)CCOCCOCCOCCNC(=O)COc1ccc2c(C(=O)NCC(=O)N3CCC[C@H]3C#N)ccnc2c1)C(=O)O [RTX-1325S]
The IC50 of the first is lower: less than 0.1 nM for the first, 0.5 to 5 nM for the second. The first is the more potent here.

First: COc1ccc2c(C(=O)NCC(=O)N3CCC[C@H]3C#N)ccnc2c1 [RTX-1326S, 7-Methoxy-quinoline-4-carboxylic Acid [2-((S)-2-cyano-pyrrolidin-1-yl)-2-oxo-ethyl]-amide]
Second: CC(=O)NCCCC[C@H](NC(=O)[C@H](CCCCNC(=O)CN1CCN(CC(=O)O)CCN(CC(=O)O)CC1)NC(=O)CCOCCOCCOCCNC(=O)COc1ccc2c(C(=O)NCC(=O)N3CCC[C@H]3C#N)ccnc2c1)C(=O)O [RTX-1339S]
The IC50 of the first is higher: 0.5 to 5 nM for the first, 0.1 to 0.5 nM for the second. The second is the more potent here.

First: CCCC(=O)NCCCC[C@H](NC(=O)[C@H](CCCCNC(=O)CN1CCN(CC(=O)O)CCN(CC(=O)O)CC1)NC(=O)CCOCCOCCOCCNC(=O)COc1ccc2c(C(=O)NCC(=O)N3CCC[C@H]3C#N)ccnc2c1)C(=O)O [RTX-1340S]
Second: CCCCCCCC(=O)NCCCC[C@H](NC(=O)[C@H](CCCCNC(=O)CN1CCN(CC(=O)O)CCN(CC(=O)O)CCN(CC(=O)O)CC1)NC(=O)CCOCCOCCOCCNC(=O)COc1ccc2c(C(=O)NCC(=O)N3CCC[C@H]3C#N)ccnc2c1)C(=O)O [RTX-1350S]
The IC50 of the first is higher: 0.1 to 0.5 nM for the first, less than 0.1 nM for the second. The second is the more potent here.

First: CC(C)Cc1ccc(CCCC(=O)NCCCC[C@H](NC(=O)[C@H](CCCCNC(=O)CN2CCN(CC(=O)O)CCN(CC(=O)O)CCN(CC(=O)O)CC2)NC(=O)CCOCCOCCOCCNC(=O)COc2ccc3c(C(=O)NCC(=O)N4CCC[C@H]4C#N)ccnc3c2)C(=O)O)cc1 [RTX-1352S]
Second: CC(=O)NCCCC[C@H](NC(=O)[C@H](CCCCNC(=O)CN1CCN(CC(=O)O)CCN(CC(=O)O)CCN(CC(=O)O)CC1)NC(=O)CCOCCOCCOCCNC(=O)COc1ccc2c(C(=O)NCC(=O)N3CCC[C@H]3C#N)ccnc2c1)C(=O)O [RTX-1353S]
The IC50 of the first is lower: less than 0.1 nM for the first, 0.1 to 0.5 nM for the second.

First: CC(C)Cc1ccc(CC(=O)NCCCC[C@H](NC(=O)[C@H](CCCCNC(=O)CN2CCN(CC(=O)O)CCN(CC(=O)O)CCN(CC(=O)O)CC2)NC(=O)CCOCCOCCOCCNC(=O)COc2ccc3c(C(=O)NCC(=O)N4CCC[C@H]4C#N)ccnc3c2)C(=O)O)cc1 [RTX-1354S]
Second: CCCCCCCC(=O)NCCCC[C@H](NC(=O)[C@H](CCCCNC(=O)CN1CCN(CC(=O)O)CCN(CC(=O)O)CCN(CC(=O)O)CC1)NC(=O)CCOCCOCCOCCNC(=O)COc1ccc2c(C(=O)NCC(=O)N3CCC[C@H]3B(O)O)ccnc2c1)C(=O)O [RTX-1355R]
The IC50 of the first is lower: less than 0.1 nM for the first, 0.1 to 0.5 nM for the second.

First: CC(C)Cc1ccc(CCCC(=O)NCCCC[C@H](NC(=O)[C@H](CCCCNC(=O)CN2CCN(CC(=O)O)CCN(CC(=O)O)CCN(CC(=O)O)CC2)NC(=O)CCOCCOCCOCCNC(=O)COc2ccc3c(C(=O)NCC(=O)N4CCC[C@H]4B(O)O)ccnc3c2)C(=O)O)cc1 [RTX-1356R]
Second: CC(C)Cc1ccc(CC(=O)NCCCC[C@H](NC(=O)[C@H](CCCCNC(=O)CN2CCN(CC(=O)O)CCN(CC(=O)O)CCN(CC(=O)O)CC2)NC(=O)CCOCCOCCOCCNC(=O)COc2ccc3c(C(=O)NCC(=O)N4CCC[C@H]4B(O)O)ccnc3c2)C(=O)O)cc1 [RTX-1359R, 2-[2-(3-{2-[2-(2-{2-[4-({2-[(R)-2-(1,2-dihydroxaboro)-1-pyrrolidinyl]-2-oxoethylamino}-carbonyl)-7-quinolyloxy]acetylamino}ethoxy)ethoxy]ethoxy}propionylamino)-6-{2-[4,7,10-tris(carb-oxymethyl)-1,4,7,10-tetraaza-1-cyclododecyl]acetylamino}hexanoylamino]-6-[2-(p-isobutylphenyl)-acetylamino]hexanoic Acid]
The IC50 of the first is higher: 0.1 to 0.5 nM for the first, less than 0.1 nM for the second.

CCCCCC(=O)NCCCC[C@H](NC(=O)[C@H](CCCCNC(=O)CN1CCN(CC(=O)O)CCN(CC(=O)O)CCN(CC(=O)O)CC1)NC(=O)CCOCCOCCOCCNC(=O)COc1ccc2c(C(=O)NCC(=O)N3CCC[C@H]3C#N)ccnc2c1)C(=O)O [RTX-1360S] and CCCCCC(=O)NCCCC[C@H](NC(=O)[C@H](CCCCNC(=O)CN1CCN(CC(=O)O)CCN(CC(=O)O)CCN(CC(=O)O)CC1)NC(=O)CCOCCOCCOCCNC(=O)COc1ccc2c(C(=O)NCC(=O)N3CCC[C@H]3B(O)O)ccnc2c1)C(=O)O [RTX-1361R] cannot be ordered by IC50: less than 0.1 nM for the first, less than 0.1 nM for the second.

CCCCCC(=O)NCCCC[C@H](NC(=O)[C@H](CCCCNC(=O)CN1CCN(CC(=O)O)CCN(CC(=O)O)CC1)NC(=O)CCOCCOCCOCCNC(=O)COc1ccc2c(C(=O)NCC(=O)N3CCC[C@H]3C#N)ccnc2c1)C(=O)O [RTX-1363S, 2,2′-(7-((S)-17-(((S)-1-carboxy-5-hexanamidopentyl)carbamoyl)-1-((4-((2-((S)-2-cyanopyrrolidin-1-yl)-2-oxoethyl)carbamoyl)quinolin-7-yl)oxy)-2,15,23-trioxo-6,9,12-trioxa-3,16,22-triazatetracosan-24-yl)-1,4,7-triazonane-1,4-diyl)diacetic Acid] and CCCCCC(=O)NCCCC[C@H](NC(=O)[C@H](CCCCNC(=O)CN1CCN2CCN(CC1)CC(=O)[O][Cu][O]C(=O)C2)NC(=O)CCOCCOCCOCCNC(=O)COc1ccc2c(C(=O)NCC(=O)N3CCC[C@H]3C#N)ccnc2c1)C(=O)O [RTX-1363S-Cu] cannot be ordered by IC50: less than 0.1 nM for the first, less than 0.1 nM for the second.

For CC(C)Cc1ccc(CC(=O)NCCCC[C@H](NC(=O)[C@H](CCCCNC(=S)Nc2ccc(CCOc3cc(CN4CCOCCOCCN(Cc5cccc(C(=O)O)n5)CCOCCOCC4)nc(C(=O)O)c3)cc2)NC(=O)CCOCCOCCOCCNC(=O)COc2ccc3c(C(=O)NCC(=O)N4CCC[C@H]4B(O)O)ccnc3c2)C(=O)O)cc1 [RTX-1399R, 4-(4-(3-((S)-1-((4-((2-((R)-2-boronopyrrolidin-1-yl)-2-oxoethyl)carbamoyl)quinolin-7-yl)oxy)-17-(((S)-1-carboxy-5-(2-(4-isobutylphenyl)acetamido)pentyl)carbamoyl)-2,15-dioxo-6,9,12-trioxa-3,16-diazahenicosan-21-yl)thioureido)phenethoxy)-6-((16-((6-carboxypyridin-2-yl)methyl)-1,4,10,13-tetraoxa-7,16-diazacyclooctadecan-7-yl)methyl)picolinic acid], the IC50 was 0.1 to 0.5 nM.

target: T1, FAP; test: surface plasmon resonance assay; format: binding; details: read-out: affinity

Compound CN(CCCN1CCN(C(=O)CN2CCN(CC(=O)O)CCN(CC(=O)O)CCN(CC(=O)O)CC2)CC1)c1ccc2nccc(C(=O)NCC(=O)N3CC(F)(F)C[C@H]3C#N)c2c1 [FAP-46] has a Kd of 0.255 nM.
